In publication PMC11855827, “High-Throughput Screening of Five Compound Libraries for Anthelmintic Activity and Toxicity Leads to the Discovery of Two Flavonoid Compounds” (International Journal of Molecular Sciences, 2025):
Where “and” joins values, the source holds several entries; their conditions need not be identical. Identical values can stand only once. Counter-ions that a name gives are not always drawn.

Tested on: C. elegans
Conditions: Table S2, C. elegans SS assay, 110 μM, averages of 4 data points

Structure (SMILES)	Percentage of motility inhibition 0 h	Percentage of motility inhibition 24 h
CC(C)=C[C@@H]1CO[C@]23C[C@@]4(CO2)[C@@H](CC[C@@H]2[C@@]5(C)CC[C@H](O[C@H]6OC[C@H](O)[C@H](O[C@H]7O[C@H](COS(=O)(=O)O)[C@@H](O)[C@H](O)[C@H]7O)[C@H]6O[C@@H]6O[C@@H](CO)[C@H](O)[C@H]6O)C(C)(C)[C@@H]5CC[C@]24C)[C@H]3[C@@]1(C)O [Bacopaside I]	19%	0%
CC(C)=C[C@H]1C[C@](C)(O)[C@@H]2[C@H]3CC[C@@H]4[C@@]5(C)CC[C@H](O[C@@H]6OC[C@H](O)[C@H](O[C@@H]7O[C@H](CO)[C@@H](O)[C@H](O)[C@H]7O)[C@H]6O[C@@H]6O[C@@H](CO)[C@H](O)[C@H]6O)C(C)(C)[C@@H]5CC[C@@]4(C)[C@@]34CO[C@@]2(C4)O1 [Bacopaside X]	9%	35%
O=c1c(O[C@@H]2O[C@H](CO)[C@@H](O)[C@H](O)[C@H]2O[C@@H]2O[C@H](CO)[C@@H](O)[C@H](O)[C@H]2O)c(-c2ccc(O)c(O)c2)oc2cc(O)cc(O)c12 [Baimaside]	13%	0%
COc1ccc(-c2oc3c(CC=C(C)C)c(O)cc(O)c3c(=O)c2O[C@@H]2O[C@@H](C)[C@H](O)[C@@H](O)[C@H]2O)cc1 [Baohuoside I]	0%	0%
CC(C)=CCc1cc(C(=O)/C=C/c2ccc(O)cc2)c(O)cc1O [Bavachalcone]	39%	18%
CC1(C)CC[C@]2(C(=O)O)CC[C@]3(C)C(=CC[C@@H]4[C@@]5(C)C[C@H](O)[C@H](O)[C@@](C)(CO)[C@@H]5CC[C@]43C)[C@@H]2C1 [Bayogenin]	2%	5%
COC[C@]12CN(C)C3[C@@H]4[C@H](OC)[C@H]1[C@@]3([C@@H](OC)C[C@H]2O)[C@]1(O)C[C@@]2(O)[C@H](OC(=O)c3ccccc3)[C@@H]1[C@]4(OC(C)=O)[C@@H](O)[C@@H]2OC [Beiwutine]		13% and 10%
CCN1C[C@]2(COC)[C@H](O)C[C@H](OC)[C@@]34[C@@H]5C[C@@]6(O)[C@H](OC(=O)c7ccccc7)[C@@H]5[C@@](O)([C@@H]([C@H](OC)[C@H]23)[C@@H]14)[C@@H](O)[C@@H]6OC [Benzoylaconine]	2%	0%
COC[C@@]12CC[C@H](OC)[C@]34C([C@H]([C@H](OC)[C@H]13)[C@]1(O)[C@H]3[C@@H](OC(=O)c5ccccc5)[C@](O)(C[C@H]34)[C@@H](OC)[C@@H]1O)N(C)C2 [Benzoylhypaconine]	5%	0%
COC[C@]12CN(C)C3[C@@H]4[C@H](OC)[C@H]1[C@@]3([C@@H](OC)C[C@H]2O)[C@@H]1C[C@@]2(O)[C@H](OC(=O)c3ccccc3)[C@@H]1[C@]4(O)[C@@H](O)[C@@H]2OC [Benzoylmesaconine]	1%	0%
C[N+](C)(CCOc1ccccc1)Cc1ccccc1.O=C([O-])c1cc2ccccc2cc1O [Bephenium (hydroxynaphthoate)]	12%	5%
COc1cc2c3cc1Oc1c(OC)c(OC)cc4c1[C@@H](Cc1ccc(O)c(c1)Oc1ccc(cc1)C[C@@H]3N(C)CC2)N(C)CC4 [Berbamine (dihydrochloride)]	33% and 53%	11% and 15%
COc1ccc2cc3[n+](cc2c1O)CCc1cc2c(cc1-3)OCO2.[Cl-] [Berberrubine (chloride)]	0%	0%
Cl.N[C@@H]1CCCCN(c2c(F)cc3c(=O)c(C(=O)O)cn(C4CC4)c3c2Cl)C1 [Besifloxacin (Hydrochloride)]	6%	32%
C=C(C)[C@@H]1CC[C@]2(C=O)CC[C@]3(C)[C@H](CC[C@@H]4[C@@]5(C)CC[C@H](O)C(C)(C)[C@@H]5CC[C@]43C)[C@@H]12 [Betulinaldehyde]	7% and 0%	3% and 9%
C=C(C)[C@@H]1CC[C@]2(C(=O)O)CC[C@]3(C)[C@H](CC[C@@H]4[C@@]5(C)CCC(=O)C(C)(C)[C@@H]5CC[C@]43C)[C@@H]12 [Betulonic acid]	24%	26%
C=CC1=C(C)/C(=C/C2=NC(=C\c3[nH]c(/C=C4\NC(=O)C(C)=C4C=C)c(C)c3CCC(=O)O)/C(CCC(=O)O)=C2C)NC1=O [Biliverdin (hydrochloride)]	0%	1%
COc1ccc(-c2coc3cc(O)cc(O)c3c2=O)cc1 [Biochanin A]	7%	0%

Structure (SMILES)	Percentage of motility inhibition 0 h	Percentage of motility inhibition 24 h
CC(=O)OC[C@@]12CC[C@@H](C)[C@](C)(CCC3=CC(=O)OC3)[C@H]1C[C@H](O)C=C2CO [Blinin]	0%	7%
COc1cc(O)c2c(c1)O[C@H](c1cc(O)cc(O)c1)CC2=O [Blumeatin]	21%	11%
C=C1C(=O)O[C@H]2C[C@@H](C)[C@@H]3[C@@H](OC(C)=O)C[C@H](O)[C@@]3(C)[C@@H](OC(C)=O)[C@H]12 [Britannin]	14%	5%
CC1=CC(=O)[C@@H](O)[C@]2(C)[C@H]3[C@@H](O)[C@H](O)[C@@]4(C)OC[C@@]35[C@@H](C[C@@H]12)OC(=O)[C@H](O)[C@]54O [Bruceine D]	25%	54%
C[C@H]1O[C@@H](O[C@H]2CC[C@@]3(C)[C@@H](CC[C@]4(C)[C@@H]3C=CC3=C5CC(C)(C)CC[C@]5(CO)[C@@H](O)C[C@]34C)[C@]2(C)CO)[C@H](O[C@@H]2O[C@H](CO)[C@@H](O)[C@H](O)[C@H]2O)[C@@H](O[C@@H]2O[C@H](CO)[C@@H](O)[C@H](O)[C@H]2O)[C@H]1O [Buddlejasaponin IVb]	0%	4%
C=C1C2CCC3(C4C[C@H]5C6(CCC[C@@]5(C)CN(CC)C46)[C@H]3[C@H]2O)[C@@H]1O [Bullatine A]	0%	3%
CN(Cc1ccc(C(C)(C)C)cc1)Cc1cccc2ccccc12.Cl [Butenafine (Hydrochloride)]	43%	0%
Clc1ccc(CCC(Cn2ccnc2)Sc2c(Cl)cccc2Cl)cc1.O=[N+]([O-])O (centres unmarked) [Butoconazole (nitrate)]	45%	46%
CCCCC1OC(=O)c2ccccc21 (centres unmarked) [Butylphthalide]	0%	18%
Cc1ccc(Nc2cc(-c3cccc(N4C(=O)c5ccccc5C4=O)c3)ncn2)cc1NS(C)(=O)=O [CDK9‐IN‐1]	54%	3%
C[C@@]12CCc3occc3[C@H]1CC[C@@]13C[C@@H](CC[C@H]12)[C@@](O)(CO)C3 [Cafestol]	0%	28%
CC1(C)CC[C@]2(C(=O)O)CC[C@]3(C)C(=CC[C@@H]4[C@@]5(C)CC[C@H](O[C@@H]6O[C@H](C(=O)O)[C@@H](O)[C@H](O)[C@H]6O)C(C)(C)[C@@H]5CC[C@]43C)[C@@H]2C1 [Calenduloside E]	0%	0%
CN1CC[C@]23c4ccccc4N[C@H]1[C@]21CCN(C)[C@H]3Nc2ccccc21 [Calycanthine]	0%	0%
COc1ccc(-c2coc3cc(O[C@@H]4O[C@H](CO)[C@@H](O)[C@H](O)[C@H]4O)ccc3c2=O)cc1O [Calycosin‐7‐O‐β‐D‐glucoside]	20%	11%
c1ccc2c(-c3nccs3)c[nH]c2c1 [Camalexin]	50%	27%
CC1(C)S[C@@H]2[C@H](NC(=O)C(C(=O)[O-])c3ccccc3)C(=O)N2[C@H]1C(=O)[O-].[Na+].[Na+] (some centres unmarked) [Carbenicillin (disodium)]	27%	27%
C=C1[C@@H]2CC[C@H]3[C@]4(C)C[C@H](O[C@@H]5O[C@H](CO)[C@@H](OS(=O)(=O)O)[C@H](OS(=O)(=O)O)[C@H]5OC(=O)CC(C)C)CC(C(=O)[O-])(C(=O)[O-])[C@H]4CC[C@]3(C2)[C@H]1O.[K+].[K+] [Carboxyatractyloside (dipotassium)]	15%	18%
C=C1[C@@H]2CC[C@H]3[C@]4(C)C[C@H](O[C@H]5O[C@@H](CO)[C@H](OS(=O)(=O)[O-])[C@@H](OS(=O)(=O)[O-])[C@@H]5OC(=O)CC(C)C)C[C@@](C(=O)[O-])(C(=O)O)[C@H]4CC[C@]3(C2)[C@H]1O.[K+].[K+].[K+] [Carboxyatractyloside (tripotassium)]	23%	23%
